Measured values taken from publication PMC7587356, “High-Throughput Screening for Inhibitors of the SARS-CoV-2 Protease Using a FRET-Biosensor” (Molecules, 2020).
Counter-ions that a name gives are not always drawn. Like-named read-outs stand apart in the source and are kept apart here.

Target: SARS-CoV-2 3CLpro (Severe acute respiratory syndrome coronavirus 2, UniProt P0DTD1)
Test: biochemical
Assay type: biochemical
Parameters: Replicate_1 / Replicate_2 / mean / mean (LOPAC_screen_w_protease): unit not given here
Settings: for mean (LOPAC_screen_w_protease) / Replicate_1 (LOPAC_screen_w_protease) / Replicate_2 (LOPAC_screen_w_protease): LOPAC1280 primary screen with protease, 5 µM compound; for mean (LOPAC screen with protease) / Replicate_1 (LOPAC screen with protease) / Replicate_2 (LOPAC screen with protease): primary screen at 5 µM; for inhibition at 5 µM: 4 h
[1] = sheet LOPAC_screen_w_protease, primary screen with protease, mean of two replicates
[2] = sheet LOPAC_screen_w_protease, primary screen with protease, replicate 1
[3] = sheet LOPAC_screen_w_protease, primary screen with protease, replicate 2
[4] = sheet LOPAC_screen_w_protease, mean of two replicates
[5] = sheet LOPAC_screen_w_protease, replicate 1
[6] = sheet LOPAC_screen_w_protease, replicate 2
[7] = sheet LOPAC_screen_w_protease, LOPAC1280 at 5 µM, mean of two replicates, read-out: mean
[8] = sheet LOPAC_screen_w_protease, LOPAC1280 at 5 µM, replicate 1, read-out: Replicate_1
[9] = sheet LOPAC_screen_w_protease, LOPAC1280 at 5 µM, replicate 2, read-out: Replicate_2
[10] = sheet LOPAC_screen_w_protease, primary screen of LOPAC1280 at 5 µM with protease, mean of the two replicates
[11] = sheet LOPAC_screen_w_protease, primary screen of LOPAC1280 at 5 µM with protease, replicate 1
[12] = sheet LOPAC_screen_w_protease, primary screen of LOPAC1280 at 5 µM with protease, replicate 2
[13] = sheet LOPAC_screen_w_protease, primary screen with protease, mean of two replicates, read-out: mean
[14] = sheet LOPAC_screen_w_protease, primary screen with protease, replicate 1, read-out: Replicate_1
[15] = sheet LOPAC_screen_w_protease, primary screen with protease, replicate 2, read-out: Replicate_2

## C#CC(N)CCC(=O)O (centres unmarked) [gamma-Acetylinic GABA]
[1]
  mean: 2.242
[2]
  Replicate_1: 2.252
[3]
  Replicate_2: 2.232

## CC1=C(C(=O)O)N2C(=O)[C@@H](NC(=O)[C@H](N)c3ccccc3)[C@H]2SC1.O [Cephalexin hydrate]
Mean of two replicates
  mean (LOPAC_screen_w_protease): 1.619
Replicate 1
  Replicate_1 (LOPAC_screen_w_protease): 2.163
Replicate 2
  Replicate_2 (LOPAC_screen_w_protease): 1.074

## CCCN1CCc2cccc3c2[C@H]1Cc1ccc(O)c(O)c1-3.Cl [R(-)-Propylnorapomorphine hydrochloride]
[4]
  mean (LOPAC screen with protease): 100.867
[5]
  Replicate_1 (LOPAC screen with protease): 101.086
[6]
  Replicate_2 (LOPAC screen with protease): 100.647

## Cc1cn(C2CC(N=[N+]=[N-])C(CO)O2)c(=O)[nH]c1=O (centres unmarked) [3'-Azido-3'-deoxythymidine]
[7]
  inhibition at 5 µM: 1.04%
[8]
  inhibition at 5 µM: 1.75%
[9]
  inhibition at 5 µM: 0.327%

## CCCn1cnc2c1c(=O)n(CCCCC(C)=O)c(=O)n2C [Propentofylline]
[7]
  inhibition at 5 µM: 1.26%
[8]
  inhibition at 5 µM: 2.2%
[9]
  inhibition at 5 µM: 0.327%

## CNC(=O)[C@H]1O[C@@H](n2cnc3c(N)ncnc32)[C@H](O)[C@@H]1O [5'-N-Methyl carboxamidoadenosine]
[10]
  mean: 3.814
[11]
  Replicate_1: 3.632
[12]
  Replicate_2: 3.996

## Br.CN1CCc2cc(O)cc3c2[C@H]1Cc1ccc(O)c(O)c1-3
[4]
  mean (LOPAC screen with protease): 100.809
[5]
  Replicate_1 (LOPAC screen with protease): 99.6837
[6]
  Replicate_2 (LOPAC screen with protease): 101.934

## CC[N+](C)(CC)CC(=O)Nc1c(C)cccc1C.[Cl-] [Lidocaine N-methyl hydrochloride]
Mean of the two replicates
  mean (LOPAC_screen_w_protease): 2.035
Replicate 1
  Replicate_1 (LOPAC_screen_w_protease): 4.235
Replicate 2
  Replicate_2 (LOPAC_screen_w_protease): -0.1654

## CCCCN1CCC(COC(=O)c2cc(Cl)c(N)c3c2OCCO3)CC1.Cl [SB 204070 hydrochloride]
[1]
  mean: 2.545
[2]
  Replicate_1: 1.507
[3]
  Replicate_2: 3.5833

## OCCN1CCN(CC/C=C2/c3ccccc3Sc3ccc(C(F)(F)F)cc32)CC1 [cis-(Z)-Flupenthixol dihydrochloride]
[13]
  inhibition at 5 µM: 2.17%
[14]
  inhibition at 5 µM: 2.7%
[15]
  inhibition at 5 µM: 1.63%

## CC(=O)C(C)=O [2,3-Butanedione]
Sheet LOPAC_screen_w_protease, LOPAC1280 primary screen at 5 µM, with protease, mean of the two replicates, read-out: mean
  inhibition at 5 µM: 0.702%
Sheet LOPAC_screen_w_protease, LOPAC1280 primary screen at 5 µM, with protease, replicate 1, read-out: Replicate_1
  inhibition at 5 µM: 1.88%
Sheet LOPAC_screen_w_protease, LOPAC1280 primary screen at 5 µM, with protease, replicate 2, read-out: Replicate_2
  inhibition at 5 µM: -0.473%

## CC(C)COC(=O)OCN1C(=O)CN(CCN2CC(=O)N(COC(=O)OCC(C)C)C(=O)C2)CC1=O [Sobuzoxane]
[13]
  inhibition at 5 µM: 2.23%
[14]
  inhibition at 5 µM: 2.79%
[15]
  inhibition at 5 µM: 1.66%

## CN1CCc2cc(Cl)c(O)cc2[C@@H](c2ccccc2)C1.Cl [R(+)-SCH-23390 hydrochloride]
[10]
  mean: 3.494
[11]
  Replicate_1: 4.714
[12]
  Replicate_2: 2.274

## Br.C=CCN1CCc2cccc3c2[C@H]1Cc1ccc(O)c(O)c1-3 [R(-)-N-Allylnorapomorphine hydrobromide]
[4]
  mean (LOPAC screen with protease): 97.2039
[5]
  Replicate_1 (LOPAC screen with protease): 99.2109
[6]
  Replicate_2 (LOPAC screen with protease): 95.1969

## COc1ccc2cc([C@H](C)C(=O)[O-])ccc2c1.[Na+] [(-)-Naproxen sodium]
  Replicate_2: -1.573
  mean: 0.4756

## Cl.O=C(Cc1ccc(Cl)c(Cl)c1)N1CCCCC1CN1CCCC1 (centres unmarked) [BRL 52537 hydrochloride]
Mean of two replicates
  mean (LOPAC_screen_w_protease): 1.672
Replicate 1
  Replicate_1 (LOPAC_screen_w_protease): 2.192
Replicate 2
  Replicate_2 (LOPAC_screen_w_protease): 1.152

## CC(=O)O[C@]1(C(C)=O)CC[C@H]2[C@@H]3C=C(Cl)C4=CC(=O)[C@@H]5C[C@@H]5[C@]4(C)[C@H]3CC[C@@]21C [Cyproterone acetate]
Sheet LOPAC_screen_w_protease, primary screen with protease, 5 µM, mean of two replicates, read-out: mean
  inhibition at 5 µM: -0.427%
Sheet LOPAC_screen_w_protease, primary screen with protease, 5 µM, replicate 1, read-out: Replicate_1
  inhibition at 5 µM: 1.58%
Sheet LOPAC_screen_w_protease, primary screen with protease, 5 µM, replicate 2, read-out: Replicate_2
  inhibition at 5 µM: -2.43%

## Cc1ccc(O)c(N=Nc2ccccc2)n1 [SIB 1757]
[1]
  mean: 2.268
[2]
  Replicate_1: 3.235
[3]
  Replicate_2: 1.301
